In the supplement of paper PMC10307832:

Compound: CNC(=O)c1cc(Oc2ccc(NC(=O)Nc3ccc(Cl)c(C(F)(F)F)c3)cc2)ccn1 [Sorafenib]
Assay: relative viability (nuclei count vs DMSO), 5 days (fraction); higher = more cells survive
How it was run: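 MetaXpress counted nuclei in 4× images of lung cancer cell lines that had been fixed, permeabilised and Hoechst-stained in one step. Before that, cells in 1536-well plates were kept overnight at 37 °C, pinned with five √10-spaced library-drug doses on vehicle-anchored plates, and cultured 5 days without medium change. Viability takes treated-well nuclei over vehicle-well nuclei and uses the median across plates. Plates were accepted only at control CV below 25% and at least one doubling.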

Cell Line | relative viability (0.08 µM) | relative viability (0.253 µM) | relative viability (2.53 µM) | relative viability (8 µM)
BEN | 1.08 | 0.826 | 1.15 | 0.823
NCI-H2085 | 1.06 | 0.972 | 1.04 | 0.895
EMC-BAC-2 | 1.05 | 0.786 | 0.938 | 0.873
A-427 | 0.999 | 0.902 | 0.94 | 0.752
LC-2-ad | 1.03 | 0.834 | 0.939 | 0.762
ChaGo-K-1 | – | 0.915 | 1 | 0.867
NCI-H1650 | 1.17 | 0.909 | 1.31 | 0.534
SW 1573 | 1.03 | 0.98 | 0.877 | 0.456
LOU-NH91 | 1.1 | 0.967 | 1.17 | –
NCI-H1944 | 0.923 | 0.927 | 0.932 | 0.734
HCC-366 | 1 | 1.02 | 1 | 0.999
COR-L 105 | 1.11 | 0.867 | 1.15 | 0.691
SK-MES-1 | 1.04 | 0.936 | 0.997 | 0.752
NCI-H2023 | 1.15 | 0.89 | 1.07 | 0.425
NCI-H1755 | 1.04 | – | 0.973 | 0.936
HARA | 1.17 | 0.79 | 1.07 | 0.767
COR-L23 | 1.04 | 0.926 | 0.957 | 0.781
NCI-H1355 | 1.02 | 0.921 | 0.958 | 0.788
NCI-H1437 | 0.999 | 0.872 | 0.945 | 0.583
NCI-H2087 | 1.12 | – | 0.927 | 0.4
HOP-62 | 0.986 | 0.858 | 0.764 | 0.589
NCI-H2228 | 1.17 | 0.736 | 0.941 | 0.714
UMC-11 | 1.03 | 0.907 | 0.917 | 0.648
NCI-H1915 | 0.956 | 0.894 | 0.934 | 0.945
LK-2 | 1.09 | 0.766 | 0.848 | 0.494

Cell Line | relative viability (0.08 µM) | relative viability (0.253 µM) | relative viability (2.53 µM) | relative viability (8 µM)
NCI-H522 | 1.04 | 0.877 | 0.865 | 0.648
NCI-H1395 | 1.1 | 0.76 | 1.02 | 0.775
PC-14 | 1.07 | 0.928 | 1.05 | –
LCLC-103H | 0.975 | 0.946 | 1.13 | 1.03
SW 900 | 0.996 | 0.781 | 1.13 | 0.865
EKVX | 1.05 | 0.954 | 0.963 | 0.952
LXF-289 | 1.06 | 0.97 | 1.03 | 0.958
HCC-827 | 1.06 | 0.954 | 1.02 | 0.956
NCI-H1666 | 0.992 | 0.913 | 0.985 | 0.844
NCI-H441 | 1.05 | 0.783 | 0.908 | 0.584
HCC-15 | 1.05 | 0.912 | 1.05 | 0.69
NCI-H520 | 0.93 | 0.823 | – | 0.75
HCC-78 | 1.13 | 0.953 | 1.05 | 1.05
H3255 | 1.07 | 0.89 | 0.99 | 0.755
NCI-H460 | 1.01 | 0.918 | 1 | 0.654
PC-3 [JPC-3] | 1.15 | 0.973 | 1.09 | –
NCI-H2170 | 1 | 0.875 | 0.943 | 0.782
NCI-H1792 | 0.877 | 0.843 | 0.892 | 0.773
NCI-H2405 | 1.12 | 0.89 | 1.06 | 0.74
NCI-H650 | 1.08 | 0.82 | 0.83 | 0.78
201T | 0.975 | 0.943 | 1.07 | 0.918
NCI-H596 | 0.993 | 1.03 | 1.18 | 0.969
HCC-44 | 0.989 | 0.886 | 0.941 | 0.901
NCI-H2126 | 1.02 | 0.997 | 1.07 | 1
NCI-H322M | 1.14 | 0.918 | 1.3 | 1.27

Cell Line | relative viability (0.08 µM) | relative viability (0.253 µM) | relative viability (2.53 µM) | relative viability (8 µM)
ABC-1 | 1.07 | 0.808 | – | 0.584
LCLC-97TM1 | 1.16 | 0.778 | – | 0.703
NCI-H1703 | 0.859 | 0.46 | 0.271 | 0.249
NCI-H1993 | 1.09 | 0.968 | 1.19 | 0.812
NCI-H1563 | 1.07 | 0.958 | 1.02 | 0.779
NCI-H1651 | 1.07 | 0.958 | 0.985 | –
NCI-H358 | 1.04 | 1.05 | 1.01 | 0.688
NCI-H727 | 1.15 | 0.768 | 0.88 | 0.691
NCI-H2347 | 1.11 | 0.964 | 1.01 | 0.944
LU99A | 0.997 | 0.94 | 0.777 | 0.696
NCI-H1975 | 1.05 | 0.889 | 1.1 | 1.03
NCI-H2342 | – | 0.728 | – | 0.656
NCI-H1734 | – | 0.97 | 0.909 | 0.618
CAL-12T | 1.01 | 0.882 | 0.985 | 0.644
NCI-H647 | 1.05 | 0.763 | 0.853 | 0.492
NCI-H1793 | 1.06 | 0.944 | 1.15 | 0.596
NCI-H23 | 1 | 0.875 | 0.974 | 0.704
RERF-LC-KJ | 1.01 | 0.903 | 0.976 | 0.941
NCI-H3122 | 0.994 | 1.01 | 0.977 | 0.881
NCI-H2009 | 0.951 | 0.786 | 0.924 | 0.731
IA-LM | – | 0.646 | 0.563 | 0.514
SK-LU-1 | 1.15 | 0.876 | 0.92 | 0.655
EPLC-272H | 1.19 | 0.842 | 1.09 | 0.774
NCI-H661 | – | 1.02 | 0.97 | 0.713
NCI-H838 | 1.04 | 0.996 | 1.17 | 0.994
